Assay results reported in patent US20220162238A1, “FATTY ACID COMPOSITION AND APPLICATION THEREOF” (SICHUAN GOWELL PHARMACEUTICAL CO., LTD., priority 2019, published 2022).
Marks after values point to notes of the source that are not given here.

Key:
[1] = test system: DSS-induced IBD mouse model; test: DSS-induced IBD mouse model (Example 10); type: in vivo, C57BL/6J mice; details: 500 mg/kg intragastrically once a day
Experimental: 1. Animals: C57BL/6J mice, male (18-20 g); 10 mice per group; purchased from Beijing Huafukang Biotechnology Co., Ltd.; license number: SCXK (Beijing) 2014-0004
(§1) (1) Normal control group (control group): 0.5 wt % sodium carboxymethyl cellulose was administered intragastrically.
(2) IBC model group (model group): 0.5 wt % sodium carboxymethyl cellulose was administered intragastrically.
(3) Positive drug sulfasalazine group (SASP group): Shanghai Sinepharm Factory Co., Ltd. (batch number: 036151102); dosage: 500 mg/kg, prepared with 0.5 wt % sodium carboxymethyl cellulose, stored at 4° C., administered intragastrically once a day.
(4) Test group: the fatty acid compositions of Examples 1 to 9, dosage: 500 mg/kg, prepared with 0.5 wt % sodium carboxymethyl cellulose, stored at 4° C., administered intragastrically once a day.
For the convenience of experimental operation, two experiments were conducted. The fatty acid compositions of Examples 1 to 5 were used for the first experiment; the fatty acid compositions of Examples 6 to 9 were used for the second experiment. Both experiments were operated according to the following methods. C57BL/6J mice were adaptively fed in an SPF animal room (laboratory animal license number: SYXK (Beijing) 2014-0023) for one week, and then randomly grouped. The mice in the model group and the administration groups were constructed as an IBC mouse model with DSS (MP, CA9011-18-1, US) by entrusting to the Institute of Materia Medica, Chinese Academy of Medical Sciences. The mice in the normal control group were not treated. The normal control group (control group) and model group (model group) were administered with 0.5 wt % sodium carboxymethyl cellulose intragastrically, once a day, with an administration volume of 10 mL/kg. The SASP group and the test group were administered intragastrically according to the above experimental scheme, once a day. […] The animals in each group were sacrificed, and each evaluation indicator of colitis was tested (see the section of Experiment results), and the anti-IBD pharmacodynamic activity of each test sample was evaluated comprehensively.
The DAI scoring criteria were as follows:
The histopathology scoring criteria table was as follows: […]

IBD mouse model with DSS = test: DSS-induced IBD mouse model (Example 14); type: in vivo, C57BL/6J mice; details: 500 mg/kg intragastrically once a day; 6 days of DSS modeling
Experimental: as §1
(§2) (2) IBD model group (model group): 0.5 wt % sodium carboxymethyl cellulose was administered intragastrically.
(3) Positive drug sulfasalazine group (SASP group): sulfasalazine enteric-coated tablets; dosage: 500 mg/kg, prepared with 0.5 wt % sodium carboxymethyl cellulose; stored at 4° C. and administered intragastrically once a day.
The mice in the model group and the administration groups were constructed as an IBD mouse model with DSS (MP, CA9011-18-1, US, keeping away from light) by entrusting to the Institute of Materia Medica, Chinese Academy of Medical Sciences. The mice in the normal control group were not treated. The normal control group and model group were administered with 0.5 wt % sodium carboxymethyl cellulose intragastrically, once a day. The SASP group and the test group were administered intragastrically according to the above experimental scheme, once a day. […] The animals in each group were sacrificed, and each evaluation indicator of colitis (see the section of Experiment results) was tested, and the anti-IBD pharmacodynamic activity of each test sample was evaluated comprehensively.

[2] = test system: TNBS-induced rat IBD model; test: TNBS-induced rat IBD model (Example 15); type: in vivo, SD rats
Experimental: (1) Normal control group (control group): 0.5 wt % sodium carboxymethyl cellulose (CMC-Na) was administered intragastrically.
as §2
(3) Positive drug sulfasalazine group (SASP group): sulfasalazine enteric-coated tablets, dosage: 600 mg/kg, prepared with 0.5% sodium carboxymethyl cellulose; administered intragastrically once a day.
3. Experimental method: After being fasted but water allowed for about 24 hours, rats in each group were anesthetized by intraperitoneal injection of 3% sodium pentobarbital solution, and a plastic tube with a diameter of 2 mm and a length of about 12 cm was gently inserted into the rat body via the anus for about 8 cm deep. The ethanol solution containing TNBS was slowly injected with the dose of TNBS 75 mg/kg and the administration volume of 3 mL/kg body weight, and then about 0.1 mL of air was injected to discharge the medicine remained in the plastic tube into intestine. After the administration, the plastic tube was slowly pulled out, the anus was pinched with hand, and the tail of the rat was lifted and kept upside down for about 30 s, so that the modeling agent can fully penetrate into the intestinal cavity of the rat. The normal control group was injected with the same amount of normal saline, Based on the body weight thereof, 75 TNBS modeled rats were randomly divided into model group, positive drug group (sulfasalazine 600 mg/kg body weight), test groups 1 to 3, 15 rats/group, and a normal control group was set up, in which 15 rats were included. On the second day after modeling, the corresponding test samples were administered intragastrically. The normal control group and the model group were administered with 0.5 wt % CMC-Na once a day for 5 consecutive days. DAI activity score was performed on days 1 and 3 of administration and 24 hours after the last administration. Intestinal mucosal damage was observed 24 hours after the last administration for CMDI scoring. The colon tissue was taken for histopathological examination.

[3] = test system: OXZ-induced mouse IBD model; test: OXZ-induced mouse IBD model (Example 16); type: in vivo, Balb/c mice; details: 500 mg/kg intragastrically once a day, 6 days
Experimental: 1. Animals: Balb/c mice, male (20-22 g); 10 mice per group.
as §1, §2
(3) Positive drug sulfasalazine group (SASP group): Dosage: 500 mg/kg, prepared with 0.5 wt % sodium carboxymethyl cellulose; stored at 4° C. and administered intragastrically once a day.
Balb/c mice were adaptively fed in an SPF animal room for one week and then grouped randomly. The mice in the model group and the administration groups were constructed as an IBD mouse model with OXZ by entrusting to the Institute of Materia Medica, Chinese Academy of Medical Sciences. Then, the administration was performed for 6 consecutive days; the normal control group was not treated. The normal control group and the model group were intragastrically administered with 0.5 wt % sodium carboxymethylcellulose, once a day. SASP group and test groups 1 to 2 were administrated intragastrically according to the above experimental scheme, once a day. Animals in each group were sacrificed on day 6 of modeling, and various indicators related to colitis were tested (see the section of Experimental results).

[4] = SASP 600 mg/kg, Example 4 at 150, 300 and 600 mg/kg

SMILES: O=C(O)c1cc(/N=N/c2ccc(S(=O)(=O)Nc3ccccn3)cc2)ccc1O [Positive drug, sulfasalazine]
- anti-IBD activity / colon tissue damage (in words) ([1]; first experiment): effectively improve the colon tissue damage
- disease comprehensive index DAI score vs. model group (in words) ([1]; first experiment): reduce the disease comprehensive index DAI score of the experimental animal significantly
- DAI comprehensive index inhibition rate (%) ([1]; first experiment, 7 days of DSS modeling): 23.08^# %
- histopathological score ([1]; first experiment, 7 days of DSS modeling, lower is closer to normal): 7.25 ± 2.14
- anti-IBD activity / colon tissue damage (in words) ([1]; second experiment): slightly improve the colon tissue damage
- DAI comprehensive index inhibition rate (%) (IBD mouse model with DSS): 38.7^# %
- histopathological examination: cases with histological changes of the colon ([2]; 600 mg/kg, model group 6 cases of 15): 5 cases of 15 cases
- degree of colon histological lesions vs. model group [2, 4]: significantly reduced compared with the model group
- symptoms of sparse stools and bloody stools during the administration period [2, 4]: alleviated until disappeared
- DAI score value ([2]; d6, 600 mg/kg intragastrically once a day for 5 days, p<0.05): lower
- CMDI score value ([2]; d6, 600 mg/kg intragastrically once a day, p<0.05): lower
- DAI composite index inhibition rate (%) [3]: 50%
- histopathological score [3]: 4.38 ± 0.42
